Experiments:
[1] = target: IKs (KCNQ1 + KCNE1) (Homo sapiens, UniProt P51787); experiment: IKs co-expressed with CiVSP (PIP2 depletion), two-electrode voltage clamp in Xenopus oocytes; assay type: cell-based
From the text: We co-expressed KCNQ1 with the voltage-dependent lipid phosphatase CiVSP[44] in Xenopus oocytes and recorded KCNQ1 currents using two-electrode voltage clamp with consecutive depolarizing voltage pulses. […] To more directly test CP1 effects, we applied CP1 to the intracellular side of the inside-out membrane patch that expressed IKs channels.

[2] = target: NaV1.5 (Homo sapiens, UniProt Q14524); experiment: Cut-open oocyte recording of NaV1.5; assay type: cell-based; details: 10 µM CP1
Sequence of NaV1.5 (Q14524 whole entry): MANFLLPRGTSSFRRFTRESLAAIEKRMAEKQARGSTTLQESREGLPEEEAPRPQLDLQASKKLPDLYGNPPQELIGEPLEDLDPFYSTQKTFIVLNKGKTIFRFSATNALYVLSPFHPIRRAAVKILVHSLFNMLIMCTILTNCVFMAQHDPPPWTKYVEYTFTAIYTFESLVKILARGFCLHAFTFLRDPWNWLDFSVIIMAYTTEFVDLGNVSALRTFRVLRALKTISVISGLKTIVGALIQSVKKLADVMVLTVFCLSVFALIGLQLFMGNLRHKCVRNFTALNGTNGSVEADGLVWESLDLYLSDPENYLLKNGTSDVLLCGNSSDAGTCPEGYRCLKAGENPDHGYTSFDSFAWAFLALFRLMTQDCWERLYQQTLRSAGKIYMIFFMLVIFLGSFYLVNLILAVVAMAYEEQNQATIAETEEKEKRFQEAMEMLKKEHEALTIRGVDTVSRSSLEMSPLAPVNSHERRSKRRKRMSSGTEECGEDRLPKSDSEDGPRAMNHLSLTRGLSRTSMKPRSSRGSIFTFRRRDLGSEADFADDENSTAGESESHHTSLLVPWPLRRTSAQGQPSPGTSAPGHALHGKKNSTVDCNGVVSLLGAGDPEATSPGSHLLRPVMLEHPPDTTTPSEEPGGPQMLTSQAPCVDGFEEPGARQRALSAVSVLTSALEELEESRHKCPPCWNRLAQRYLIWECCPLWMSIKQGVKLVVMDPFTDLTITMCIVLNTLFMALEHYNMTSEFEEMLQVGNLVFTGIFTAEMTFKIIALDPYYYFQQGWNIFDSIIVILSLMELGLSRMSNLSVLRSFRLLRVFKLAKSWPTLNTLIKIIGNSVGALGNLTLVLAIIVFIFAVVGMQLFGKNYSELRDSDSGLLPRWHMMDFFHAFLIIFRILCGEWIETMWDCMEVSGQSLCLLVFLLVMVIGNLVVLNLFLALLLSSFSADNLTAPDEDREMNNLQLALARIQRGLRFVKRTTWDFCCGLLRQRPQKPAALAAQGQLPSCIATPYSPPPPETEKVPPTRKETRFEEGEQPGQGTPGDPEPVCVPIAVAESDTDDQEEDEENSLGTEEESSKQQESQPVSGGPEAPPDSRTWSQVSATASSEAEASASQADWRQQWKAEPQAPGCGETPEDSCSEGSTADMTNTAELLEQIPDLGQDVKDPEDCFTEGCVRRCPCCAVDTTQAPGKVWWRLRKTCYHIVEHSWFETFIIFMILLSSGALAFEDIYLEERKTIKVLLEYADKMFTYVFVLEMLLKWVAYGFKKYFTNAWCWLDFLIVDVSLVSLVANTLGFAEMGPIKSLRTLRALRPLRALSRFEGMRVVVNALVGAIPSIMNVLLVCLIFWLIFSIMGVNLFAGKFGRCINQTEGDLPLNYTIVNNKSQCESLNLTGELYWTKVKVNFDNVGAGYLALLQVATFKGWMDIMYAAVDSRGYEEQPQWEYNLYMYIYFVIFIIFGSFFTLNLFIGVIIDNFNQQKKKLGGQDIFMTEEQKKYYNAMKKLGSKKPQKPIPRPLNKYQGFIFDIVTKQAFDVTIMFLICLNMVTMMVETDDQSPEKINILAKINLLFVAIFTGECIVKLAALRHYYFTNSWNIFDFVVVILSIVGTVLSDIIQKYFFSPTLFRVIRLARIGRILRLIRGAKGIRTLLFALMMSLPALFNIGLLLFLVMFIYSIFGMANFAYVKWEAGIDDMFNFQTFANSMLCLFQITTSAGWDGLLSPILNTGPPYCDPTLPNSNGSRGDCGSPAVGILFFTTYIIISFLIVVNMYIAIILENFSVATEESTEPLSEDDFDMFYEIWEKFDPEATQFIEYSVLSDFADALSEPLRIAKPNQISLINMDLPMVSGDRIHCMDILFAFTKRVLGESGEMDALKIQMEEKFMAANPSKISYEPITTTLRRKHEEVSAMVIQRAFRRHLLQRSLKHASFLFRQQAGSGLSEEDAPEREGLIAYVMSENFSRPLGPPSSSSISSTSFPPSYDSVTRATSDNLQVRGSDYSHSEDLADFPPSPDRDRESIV
Sequence of NaV1.5 (Q07699 19-218 partner): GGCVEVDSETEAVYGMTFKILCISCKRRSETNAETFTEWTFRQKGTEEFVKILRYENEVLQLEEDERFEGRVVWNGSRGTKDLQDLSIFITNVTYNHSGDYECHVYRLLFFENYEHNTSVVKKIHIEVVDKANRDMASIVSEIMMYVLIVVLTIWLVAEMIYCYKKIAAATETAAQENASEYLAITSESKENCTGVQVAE
From the text: Since CP1 has a similar effect to PIP2 in mediating VSD-pore coupling in KCNQ channels, we tested if CP1 has effects on other ion channels that are also sensitive to PIP2 or are voltage activated and share general structural features of the VSD and the pore with KCNQ. […] On the other hand, NaV1.5 and KV4.2 are voltage-gated ion channels.
Fig. 6 Effects of CP1 on other ion channels expressed in Xenopus oocytes. a Currents of Kir1.1, CaV1.2, NaV1.5, hERG, and KV4.2 before and after application of 10 µM CP1, respectively. The voltages for holding, test, and returning pulses were Kir1.1, 0 mV, −100 to +60 mV, 0; CaV1.2, −100 mV, −100 to +60, −100 mV; NaV1.5, −100, −120 to +40 mV, −120 mV; hERG, −80 mV, −90 to +60 mV, −60 mV; KV4.2, −80 mV, −100 mV to +80 mV, −40 mV; HCN4, −30 mV, −30 to −140 mV, −120 mV. b Current–voltage relations of Kir1.1 channel in the absence or presence of 10 µM CP1 (n = 7). c–g G–V relations of indicated channels with and without 10 µM CP1. The ΔV1/2 of G–V relations (mV) are CaV1.2, 3.38 ± 0.71 mV (c); NaV1.5, −2.26 ± 0.95 mV (d); hERG, 6.85 ± 1.81 mV (e); KV 4.2, −2.26 ± 2.88 mV (f); HCN4, 17.13 ± 1.59 mV (g).
Complementary DNA (cDNA) encoding human KCNQ1 (UniProtKB/Swiss‐Prot under accession no. P51787), KCNQ2 (O43526), KCNQ3 (O43525), KCNE1 (P15382), Kir1.1 (P48048), hERG (Q12809), KV4.2 (Q63881), NaV1.5 (Q14524), NaV β1 (Q07699), CaV1.2 (Q13936), CaV β1a (Q02641), CaV α2/δ1 (P54289), and HCN4 (Q9Y3Q4) were subcloned into oocyte expression vectors, respectively. Site-directed mutations of the KCNQ1 channel were all produced by overlap extension polymerase chain reaction (PCR) with high-fidelity Pfu polymerase (Stratagene, CA). The presence of the desired mutation was verified by sequencing the PCR-amplified regions. All the primer sequences used in this study are available in Supplementary Table 1. The complementary RNA (cRNA) of all these channels and mutations was transcribed in vitro with the T3, T7, or SP6 polymerase mMessage mMachine kit (Invitrogen, Thermo Fisher Scientific, MO).
The use of Xenopus laevis to obtain oocytes was approved by the Washington University Animal Studies Committee (protocol #20190030). Oocytes were manually dispersed and digested with collagenase (0.5 mg/ml, Sigma-Aldrich, Saint Louis, MO) to remove the follicle cell layer. Stage V or VI oocytes were selected and injected with cRNAs (9.2 ng) of channel or mutations. Especially, to characterize IKs, a mix of cRNAs at a molar ratio 4:1 (KCNQ1:KCNE1) was injected. For KCNQ2/KCNQ3, the molar ratio was 1:1 (KCNQ2:KCNQ3). For sodium channels, a 3:1 molar ratio (β1:NaV1.5) and for calcium channels a weight ratio 1:1:1 (β1:α2/δ1:CaV1.2) was injected, respectively. Injected oocytes were incubated in ND96 solution containing (in mM) 96 NaCl, 2 KCl, 1.8 CaCl2, 1 MgCl2, and 5 HEPES, pH 7.6, supplemented with 2.5 mM Na pyruvate and 1% penicillin–streptomycin, at 18 °C for 3–7 days before recording.
NaV1.5 currents were recorded with a cut-open amplifier (CA-1B, Dagan Corporation) coupled with an A/D converter (Digidata 1440, Molecular Devices). The data were acquired using Clampex software (v10, Molecular Devices). The internal solution was composed of (mM) 105 NMG‐Mes, 10 Na‐Mes, 20 HEPES, and 2 EGTA, pH 7.4. The external solution was composed of (mM) 25 NMG‐Mes, 90 Na‐Mes, 20 HEPES, and 2 Ca‐Mes2, pH 7.4. The ionic currents were recorded using the standard I–V protocol. From a holding potential of −120 mV, cells were stepped to a 100-ms prepulse of −120 mV and then stepped to test potentials ranging from −120 to 60 mV with 20-mV increment, […] a 100-ms postpulse of −120 mV.

IKs currents after PIP2 depletion ([1]; 10 µM CP1, extracellular perfusion, pulses to +60 mV): rescued IKs currents
membrane permeability ([1]; inferred from rescue by extracellular perfusion): membrane permeable
Structure (SMILES): O=S(=O)([O-])Oc1c(-c2sc3c(ccc4cccc(Cl)c43)c2OS(=O)(=O)[O-])[nH]c2ccc(Br)cc12.[Na+].[Na+] [CP1, DISODIUM 5-BROMO-2-[9-CHLORO-3-(SULFONATOOXY) NAPHTHO [1,2-B] THIEN-2-YL]-1H-INDOL-3-YL SULFATE]
ΔV1/2 of G–V relations [2]: −2.26 ± 0.95 mV
G/Gmax Mean (Fig. 6d) ([2]; voltage 0 mV): 0.9380
G/Gmax Mean (Fig. 6d) ([2]; voltage 20 mV): 1.0000
G/Gmax Mean (Fig. 6d) ([2]; voltage -20 mV): 0.9095
G/Gmax Mean (Fig. 6d) ([2]; voltage -40 mV): 0.8354
G/Gmax Mean (Fig. 6d) ([2]; voltage -60 mV): 0.4098
G/Gmax Mean (Fig. 6d) ([2]; voltage -80 mV): 0.0040
G/Gmax Mean (Fig. 6d) ([2]; voltage -100 mV): 0.0015
G/Gmax Mean (Fig. 6d) ([2]; voltage -120 mV): 0.0016

Reference: paper PMC7367283, “A PIP2 substitute mediates voltage sensor-pore coupling in KCNQ activation” (Communications Biology, 2020)
